Laboratory results as given in publication PMC6476926, “Dichloro-Phenyl-Benzotriazoles: A New Selective Class of Human Respiratory Syncytial Virus Entry Inhibitors” (Frontiers in Chemistry, 2019).
“Also recorded” adds a separate entry of the source.

What was measured:
RSV [1] = test: microbe, parasite or virus in culture; type: cell-based, Human Respiratory Syncytial Virus (RSV) strain A2; settings: human respiratory syncytial virus, Vero 76, read-out: EC50 RSV
RSV A2 [2] = test: Immunofluorescence attachment assay; type: cell-based, Human Respiratory Syncytial Virus (RSV); settings: 4°C, Vero-76; 20 μM 10d, 6 μg/mL dextran sulfate, 5 μM 6-azauridine
Method: Compounds' inhibitory effects on virus-cell binding event was measured by immunofluorescence performed according to the method described previously with some modifications (Maric et al., [2011]). […] After this incubation period, the monolayers were washed three times in cold PBS in order to remove unbound viral particles and then were fixed in paraformaldehyde 4%. The presence of bound virus was detected by indirect immunofluorescence. […] Abcam, Cambridge, United Kingdom). Cells were then washed three times in PBS-Tween-100 and incubated with a 1:500 dilution of an Alexa Fluor 488-labeled anti-mouse secondary antibody (Molecular Probes, Eugene, Oreg.). After a series of washes in PBS-Tween-100, cells were mounted with Vectashield (Vector Laboratories, Burlingame, CA) containing 4′,6-diamidino-2-phenylindole (DAPI) and images of each well were captured with the ZOE Fluorescent Cell Imager (Biorad).

[3] = Cytotoxicity, MTT method, Vero-76 cells; settings: African green monkey (Cercopithecus aethiops)
HIV-1IIIB = test: microbe, parasite or virus in culture; type: cell-based, Human Immunodeficiency Virus type-1 (HIV-1); settings: Human immunodeficiency virus 1, MT4, read-out: EC50 HIV-1IIIB
BVDV = test: microbe, parasite or virus in culture; type: cell-based; settings: Bovine viral diarrhea virus isolates and strains, MDBK, read-out: EC50 BVDV
YFV = test: microbe, parasite or virus in culture; type: cell-based; settings: Yellow fever virus, BHK, read-out: EC50 YFV
Reo-1 = test: microbe, parasite or virus in culture; type: cell-based, Reovirus type-1 (Reo-1); settings: Reovirus sp., BHK, read-out: EC50 Reo-1
CV-B5 = test: microbe, parasite or virus in culture; type: cell-based, Human Enterovirus B [coxsackie type B5 (CV-B5)]; settings: Enterovirus B, CVB5, Vero 76, read-out: EC50 CV-B5
Sb-1, VSV, VV, HSV-1 = test: organism not typed; type: cell-based; settings: Vero 76, read-out: EC50 Sb-1, VSV, VV, HSV-1
RSV strain B1 cp-52 = test: microbe, parasite or virus in culture; type: cell-based; settings: human respiratory syncytial virus, Vero 76, read-out: 50% inhibitory concentration RSV cp-52
in vitro [4] = settings: cattle (Bos taurus)
[5] = Cytotoxicity, MTT method, BHK cells; settings: Syrian hamster (Mesocricetus auratus)
[6] = Cytotoxicity, MTT method, MT-4 cells; settings: human
RSV virions = test: Virucidal activity assay; type: cell-based, Human Respiratory Syncytial Virus (RSV); settings: 20 μM, 4°C or 37°C, 1 h
Method: The mixture without test sample was used as the control. At the end of incubation period, samples were serially diluted in media and titers were determined on Vero-76 cells at high dilutions, at which the compound was not active. Virus titers were determined by plaque assay in Vero-76 cells.

RSV [7] = test: Cell pretreatment assay; type: cell-based, Human Respiratory Syncytial Virus (RSV); settings: Vero-76 pretreated with 20 μM, 2 h at 4°C; titer 3 days post infection
Method: After removal of the compound and two gentle washes, cells were infected with RSV. After virus adsorption to cells, the inoculum was removed and the cells were then overlaid with medium, incubated for 3 days at 37°C, and then virus titers were determined by plaque assay.

RSV [8] = test: Time of addition assay; type: cell-based, Human Respiratory Syncytial Virus (RSV); settings: 20 μM
Method: After each incubation period, the monolayers were washed two times with maintenance medium and incubated with fresh medium until 10 h post-infection. Then, after 36 h the development of cytopathic effect (CPE) was evaluated microscopically and each sample was collected, centrifuged and frozen at −80°C. The viral titer was determined by plaque assay (or ELISA).

[9] = Cytotoxicity in continuous cell lines (summary statement); type: cell-based; settings: continuous cell lines from different organs and species (Table 1, Table S2); read-out: CC50 in most continuous cell lines
Method: Exponentially growing MT-4 cells were seeded at an initial density of 4x10^5 cells/mL in 96-well plates containing RPMI-1640 medium, supplemented with 10% fetal bovine serum (FBS), 100 units/mL penicillin G and 100 μg/mL streptomycin. MDBK, Hep-2 and BHK cells were seeded at an initial density of 6 × 10^5, 5 × 10^5, and 1 × 10^6 cells/mL, respectively, in 96-well plates containing Minimum Essential Medium with Earle's salts (MEM-E), L-glutamine, 1 mM sodium pyruvate and 25 mg/L kanamycin, supplemented with 10% horse serum (MDBK) or 10% fetal bovine serum (FBS) (BHK; Hep-2). Vero-76 cells were seeded at an initial density of 5 × 10^5 cells/mL in 96-well plates containing in Dulbecco's Modified Eagle Medium (D-MEM) with L-glutamine and 25 mg/L kanamycin, supplemented with 10% FBS. Cell cultures were then incubated at 37°C in a humidified, 5% CO2 atmosphere, in the absence or presence of serial dilutions of test compounds. The test medium used for cytotoxic and antiviral assay contained 1% of the appropriate serum. Cell viability was determined after 72, 96, or 120 h at 37°C by the MTT method for MT-4, MDBK, Hep-2, BHK and Vero-76 cells (Budge et al., [2004]).

RSV A2 [10] = test: Syncytium reduction assay; settings: Vero-76, added 8 h p.i. at 50, 10, 2 μM, assessed 72 h p.i.
RSV [11] = test: Antigen reduction assay (ELISA) in RSV-infected Vero-76 cells
RSV F-protein = settings: read-out: experimental IC50; ref Battles et al., [2016]; cited from earlier work
in vitro [12] = settings: African green monkey (Cercopithecus aethiops)

Molecule | EC50 (RSV [1]) [µM] | inhibition of viral attachment (RSV A2 [2]) | CC50 at 5 days [3] [µM] | EC50 (HIV-1IIIB) [µM] | EC50 (BVDV) [µM] | EC50 (YFV) [µM] | EC50 (Reo-1) [µM] | EC50 (CV-B5) [µM] | EC50 (Sb-1, VSV, VV, HSV-1) [µM] | IC50 (RSV strain B1 cp-52) [µM] | melting point [°C] | CC50 (in vitro [4]) [µM] | CC50 [5] [µM] | CC50 [6] [µM] | other results
O=c1cnn([C@@H]2O[C@H](CO)[C@@H](O)[C@H]2O)c(=O)[nH]1 [6-azauridine, reference compound] | 1.4 | not able to block viral binding | ≥ 14 |  |  |  |  |  |  |  |  |  |  |  | 
COc1cc(C(=O)Nc2ccc(-n3nc4cc(Cl)c(Cl)cc4n3)cc2)cc(OC)c1OC [8d, N-[4-(5,6-dichloro-2H-benzo[d][1,2,3]triazol-2-yl)phenyl]-3,4,5-trimethoxybenzamide] | 3 |  | 80 | > 63 | 35 | > 35 | > 35 | > 80 | > 80 | 10 ± 2 | 199 to 201 | > 100 | 35 | 63 | 
CCCNC(=O)Nc1ccc(-n2nc3cc(Cl)c(Cl)cc3n2)cc1 [10b, 1-[4-(5,6-dichloro-2H-benzo[d][1,2,3]triazol-2-yl)phenyl]-3-propylurea] | 3 |  | 30 | > 100 | > 78 | > 40 | > 40 | > 30 | > 30 | 7 ± 1 | > 300 | 78 | 40 | > 100 | 
O=C(Nc1ccc(-n2nc3cc(Cl)c(Cl)cc3n2)cc1)NC1CCCCC1 [10d, 1-[4-(5,6-dichloro-2H-benzo[d][1,2,3]triazol-2-yl)phenyl]-3-cyclohexylurea] | 2 | does not inhibit viral attachment; also recorded: not able to block viral binding to cells | 90 | > 100 | > 100 | > 71 | > 71 | > 90 | > 90 | 7 ± 1 | > 300 | > 100 | 71 | > 100 | virucidal effect (RSV virions): negligible; inhibition of RSV infection after cell pretreatment (RSV [7]): failed to inhibit RSV infection; also recorded: failed to prevent viral infection; inhibition of RSV, addition at later times (RSV [8]; m.o.i. 1, 4–10 h after infection): failed to exhibit significant antiviral activity; inhibition of RSV, addition in early phases (RSV [8]; m.o.i. 1, during the 2 h of infection (t = 0) and immediately after): most efficient inhibition was observed in early phases of infection; CC50 [9]: < 70 µM; syncytium formation (RSV A2 [10]): the number and the size of syncytia decreased in a dose-dependent manner; also recorded: both size and number of syncytia did not increase; also recorded: effective in reducing both syncytia area and number at a concentration of 50 μM; also recorded: dose-dependent reduction of syncytia area and number; reduction of viral antigen (RSV [11]; ELISA, at 20 μM): 80%; EC50 (RSV [11]; human respiratory syncytial virus, Vero 76, read-out: EC50 viral antigen reduction): 5 µM
O=C(NCc1ccccc1)Nc1ccc(-n2nc3cc(Cl)c(Cl)cc3n2)cc1 [10j, 1-[4-(5,6-dichloro-2H-benzo[d][1,2,3]triazol-2-yl)phenyl]-3-benzylurea] | > 100 |  | > 100 | > 100 | > 100 | > 100 | > 100 | > 100 | > 100 |  | > 290 | > 100 | > 100 | > 100 | 
O=C(Nc1ccc(-n2nc3cc(Cl)c(Cl)cc3n2)cc1)Nc1cccc2ccccc12 [10k, 1-[4-(5,6-dichloro-2H-benzo[d][1,2,3]triazol-2-yl)phenyl]-3-naphtylurea] | > 100 |  | > 100 | > 100 | > 100 | > 100 | > 100 | > 100 | > 100 |  | > 290 | > 100 | > 100 | > 100 | 
Cc1ccc(CCCO)c(NCc2ccc3nc(NCCCN4CCOCC4)n(Cc4nc(C)ccc4O)c3c2)c1 [TMC353121] |  |  |  |  |  |  |  |  |  |  |  |  |  |  | IC50 (RSV F-protein): 0.0087 µM
NC(=O)c1ncn([C@@H]2O[C@H](CO)[C@@H](O)[C@H]2O)n1 [ribavirin, reference compound] | 7 |  |  |  |  |  |  |  |  |  |  |  |  |  | CC50 at 5 days (in vitro [12]): > 100 µM
dextran sulfate [reference compound] |  | inhibits viral attachment; also recorded: efficiently blocked viral attachment |  |  |  |  |  |  |  |  |  |  |  |  | 
